Results from patent publication US20210046071A1, “TETRACYCLIC COMPOUNDS AND THEIR SALTS, COMPOSITIONS, AND METHODS FOR THEIR USE” (Senhwa Biosciences, Inc., priority 2019, published 2021).

How the values were obtained:
Type in all cases: cell-based
[1] = tested on: MV 4; 11; assay: Alamar Blue cell viability assay, MV 4; 11; details: Homo sapiens, MV4-11, 11, Leukemia
Experimental: (§1) The effect of Compound I on cell viability was assessed by Alamar Blue assay of metabolic activity in various cancer cell lines.

[2] = tested on: Ramos; assay: Alamar Blue cell viability assay, Ramos; details: Homo sapiens, Lymphoma
Experimental: as §1

[3] = tested on: SK-OV-3; assay: Alamar Blue cell viability assay, SK-OV-3; details: Homo sapiens; SK-OV-3, Ovarian
Experimental: as §1

[4] = tested on: MDA-MB-361; assay: Alamar Blue cell viability assay, MDA-MB-361; details: Homo sapiens; MDA-MB-361, Breast
Experimental: as §1

[5] = tested on: CCD-1094Sk; assay: Alamar Blue cell viability assay, CCD-1094Sk; details: Normal
Experimental: as §1

SMILES: Cc1cnc(CNC(=O)c2c(=O)c3ccc(N4CCCN(C)CC4)nc3n3c2sc2ccccc23)cn1 [Compound I, 2-(4-Methyl-[1,4]diazepan-1-yl)-5-oxo-5H-7-thia-1,11b-diaza-benzo[c]fluorene-6-carboxylic acid (5-methyl-pyrazin-2-ylmethyl)-amide]
- EC50 [1]: 12 nM
- EC50 [2]: 66 nM
- EC50 [3]: 78 nM
- EC50 [4]: 2100 nM
- EC50 [5]: 4810 nM
